Legend:
[1] = target: T1, RARα (Homo sapiens, UniProt P10276); assay: ligand binding assay, RARα; conditions: read-out: RAR Bind. Ki α
T1 sequence (P10276 1-462): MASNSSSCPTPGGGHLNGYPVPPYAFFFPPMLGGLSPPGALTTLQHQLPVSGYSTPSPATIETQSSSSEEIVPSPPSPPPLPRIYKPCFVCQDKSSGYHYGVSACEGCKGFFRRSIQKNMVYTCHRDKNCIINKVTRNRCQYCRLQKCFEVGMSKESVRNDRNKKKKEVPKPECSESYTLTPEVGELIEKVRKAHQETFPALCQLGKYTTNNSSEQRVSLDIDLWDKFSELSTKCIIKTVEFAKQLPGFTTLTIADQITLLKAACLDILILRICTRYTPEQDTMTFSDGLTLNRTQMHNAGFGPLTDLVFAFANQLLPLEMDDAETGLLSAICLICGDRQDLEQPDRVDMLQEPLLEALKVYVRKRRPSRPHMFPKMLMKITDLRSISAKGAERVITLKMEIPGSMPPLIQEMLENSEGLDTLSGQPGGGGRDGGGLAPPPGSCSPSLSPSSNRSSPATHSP
Excerpt: (§1) Other assays described below, measure the ability of the compounds of the present invention to bind to, and/or activate various retinoid receptor subtypes. When in these assays a compound binds to a given receptor subtype and activates the transcription of a reporter gene through that subtype, then the compound is considered an agonist of that receptor subtype. […] In the below described assays the ability of the compounds to bind to RARα, RARβ, RARγ, RXRα, RXRβ and RXRγ receptors, and the ability or inability of the compounds to activate transcription of a reporter gene through these receptor subtypes can be tested. […] However, some of the compounds of the invention may behave as retinoid antagonists or partial antagonists and/or as inverse agonists. Because of the complex distribution of the different retinoid receptors in various organs of the mammalian body partial agonists and partial antagonists and compounds which have the characteristics of both may lend themselves to particularly useful therapeutic applications and may avoid serious side effects of conventional retinoid drugs.
(§2) A holoreceptor transactivation assay and a ligand binding assay which measure the antagonist/agonist like activity of the compounds of the invention, or their ability to bind to the several retinoid receptor subtypes, respectively, are described in published PCT Application No. WO WO93/11755 (particularly on pages 30-33 and 37-41) published on Jun. 24, 1993, the specification of which is also incorporated herein by reference. A detailed experimental procedure for holoreceptor transactivations has been described by Heyman et al. Cell 68, 397-406, (1992); Allegretto et al. J. Biol. Chem. 268, 26625-26633, and Mangelsdorf et al. The Retinoids: Biology, Chemistry and Medicine, pp 319-349, Raven Press Ltd., New York, which are expressly incorporated herein by reference. The results obtained in this assay are expressed in EC50 numbers, as they are also in the chimeric receptor transactivation assay. The results of ligand binding assay are expressed in Kd numbers. (See Cheng et al. Biochemical Pharmacology Vol. 22 pp 3099-3108, expressly incorporated herein by reference.)
(§3) Table 1 discloses the activity of certain exemplary compounds of the invention in the above-described chimeric receptor transactivation assay, holoreceptor transactivation assay and a ligand binding assays. Particularly, the transactivation data pertaining to RAR receptors were obtained in the chimeric assay, and the data pertaining to transactivation of RXR receptors were obtained in the holoreceptor transactivation assay.

[2] = target: T2, RARβ (Homo sapiens, UniProt P10826); assay: ligand binding assay, RARβ; conditions: read-out: RAR Bind. Ki β
T2 sequence (P10826 1-448 isoform P10826-2): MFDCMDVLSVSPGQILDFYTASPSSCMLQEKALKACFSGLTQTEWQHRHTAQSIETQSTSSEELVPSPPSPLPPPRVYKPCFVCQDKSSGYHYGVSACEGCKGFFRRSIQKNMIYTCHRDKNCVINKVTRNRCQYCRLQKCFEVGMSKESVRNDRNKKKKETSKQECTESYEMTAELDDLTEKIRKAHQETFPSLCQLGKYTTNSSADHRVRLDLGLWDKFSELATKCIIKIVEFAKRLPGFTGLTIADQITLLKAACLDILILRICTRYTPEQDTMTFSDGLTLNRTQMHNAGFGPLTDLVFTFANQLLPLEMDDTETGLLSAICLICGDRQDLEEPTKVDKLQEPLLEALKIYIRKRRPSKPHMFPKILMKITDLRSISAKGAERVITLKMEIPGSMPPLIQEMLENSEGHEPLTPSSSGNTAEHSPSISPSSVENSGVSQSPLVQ
Excerpt: as §1, §2, §3

[3] = target: T3, RARγ (Homo sapiens, UniProt P13631); assay: ligand binding assay, RARγ; conditions: read-out: RAR Bind. Ki γ
T3 sequence (P13631 1-454): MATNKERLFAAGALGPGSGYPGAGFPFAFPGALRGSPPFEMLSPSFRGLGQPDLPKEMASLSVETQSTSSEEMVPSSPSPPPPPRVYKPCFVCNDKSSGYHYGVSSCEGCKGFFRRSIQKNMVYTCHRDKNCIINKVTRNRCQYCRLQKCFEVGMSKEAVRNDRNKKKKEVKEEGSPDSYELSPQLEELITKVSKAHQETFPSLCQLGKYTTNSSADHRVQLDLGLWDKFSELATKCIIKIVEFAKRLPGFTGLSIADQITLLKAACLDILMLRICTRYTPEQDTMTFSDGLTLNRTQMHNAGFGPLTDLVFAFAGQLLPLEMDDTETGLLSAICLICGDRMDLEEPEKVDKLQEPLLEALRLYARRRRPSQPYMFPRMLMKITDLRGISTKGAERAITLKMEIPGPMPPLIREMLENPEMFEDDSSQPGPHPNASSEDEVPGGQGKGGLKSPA
Excerpt: as §1, §2, §3

[4] = target: T4, RXRα (Homo sapiens, UniProt P19793); assay: ligand binding assay, RXRα; conditions: read-out: RXR Bind Ki α
T4 construct: expressed in transfected cells
T4 sequence (P19793 1-462): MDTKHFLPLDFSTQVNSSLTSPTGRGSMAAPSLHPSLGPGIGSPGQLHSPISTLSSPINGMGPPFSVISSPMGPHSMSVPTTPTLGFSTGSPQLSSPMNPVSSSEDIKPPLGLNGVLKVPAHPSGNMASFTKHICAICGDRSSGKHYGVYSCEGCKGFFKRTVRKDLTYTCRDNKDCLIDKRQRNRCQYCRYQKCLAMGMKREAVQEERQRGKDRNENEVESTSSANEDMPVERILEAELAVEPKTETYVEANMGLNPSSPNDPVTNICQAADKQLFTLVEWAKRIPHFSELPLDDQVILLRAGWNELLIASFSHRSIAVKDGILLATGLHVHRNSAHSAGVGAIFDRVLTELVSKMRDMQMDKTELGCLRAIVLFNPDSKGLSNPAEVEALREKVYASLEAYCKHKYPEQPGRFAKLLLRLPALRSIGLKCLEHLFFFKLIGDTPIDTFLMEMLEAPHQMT
Excerpt: as §1, §2, §3

[5] = target: RXRβ; assay: ligand binding assay, RXRβ; conditions: read-out: RXR Bind Ki β
Excerpt: as §1, §2, §3

[6] = target: RXRγ; assay: ligand binding assay, RXRγ; conditions: read-out: RXR Bind Ki γ
Excerpt: as §1, §2, §3

[7] = target: T4, RXRα; assay: holoreceptor transactivation assay, RXRα; type: cell-based; conditions: for EC50: holoreceptor transactivation, RXRα, read-out: RXR Trans. EC50 α; for Emax: relative to 10^-6 M cyclopropyl penta-2,4-dienoic acid reference (RXRs), read-out: % efficacy (RXRα transactivation)
Excerpt: as §1, §2, §3

[8] = target: T5, RXRγ (Mus musculus, UniProt P28705); assay: holoreceptor transactivation assay, RXRγ; type: cell-based; conditions: for EC50: holoreceptor transactivation, RXRγ, read-out: RXR Trans. EC50 γ; for Emax: relative to 10^-6 M cyclopropyl penta-2,4-dienoic acid reference (RXRs), read-out: % efficacy (RXRγ transactivation)
T5 construct: expressed in transfected cells
T5 sequence (P28705 1-463): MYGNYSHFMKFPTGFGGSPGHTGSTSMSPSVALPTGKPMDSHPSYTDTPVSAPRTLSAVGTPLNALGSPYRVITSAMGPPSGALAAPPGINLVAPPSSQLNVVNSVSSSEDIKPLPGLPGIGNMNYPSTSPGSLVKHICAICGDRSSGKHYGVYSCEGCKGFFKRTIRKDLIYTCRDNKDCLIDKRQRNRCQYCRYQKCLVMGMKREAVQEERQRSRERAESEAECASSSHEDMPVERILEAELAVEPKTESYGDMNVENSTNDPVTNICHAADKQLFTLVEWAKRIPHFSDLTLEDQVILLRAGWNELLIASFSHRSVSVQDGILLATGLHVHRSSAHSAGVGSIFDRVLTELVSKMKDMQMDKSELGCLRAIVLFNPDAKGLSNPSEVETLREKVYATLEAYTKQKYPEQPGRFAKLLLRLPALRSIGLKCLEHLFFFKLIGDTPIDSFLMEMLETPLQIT
Excerpt: as §1, §2, §3

[9] = target: T6, RXRβ (Mus musculus, UniProt P28704); assay: holoreceptor transactivation assay, RXRβ; type: cell-based
T6 construct: expressed in transfected cells
T6 sequence (P28704 1-520): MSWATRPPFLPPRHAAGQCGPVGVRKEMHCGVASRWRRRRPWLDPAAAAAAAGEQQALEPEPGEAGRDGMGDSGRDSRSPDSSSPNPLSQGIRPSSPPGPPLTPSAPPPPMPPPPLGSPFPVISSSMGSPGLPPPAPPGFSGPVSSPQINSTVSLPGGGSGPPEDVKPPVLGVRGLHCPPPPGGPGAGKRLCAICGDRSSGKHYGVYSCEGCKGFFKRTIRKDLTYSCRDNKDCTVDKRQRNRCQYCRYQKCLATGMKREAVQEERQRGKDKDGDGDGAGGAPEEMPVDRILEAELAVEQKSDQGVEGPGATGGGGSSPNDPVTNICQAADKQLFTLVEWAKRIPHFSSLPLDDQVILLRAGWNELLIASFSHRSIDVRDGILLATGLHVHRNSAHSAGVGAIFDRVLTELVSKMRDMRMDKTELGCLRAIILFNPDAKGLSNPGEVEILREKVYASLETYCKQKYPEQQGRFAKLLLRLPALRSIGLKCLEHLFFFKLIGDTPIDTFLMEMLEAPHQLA
Excerpt: as §1, §2, §3

Ki [1]	Ki [2]	Ki [3]	Ki [4]	Ki [5]	Ki [6]	EC50 [7]	Emax [7]	EC50 [8]	Emax [8]	EC50 ([9]; holoreceptor transactivation, RXRβ, read-out: RXR Trans. EC50 β)	Emax ([9]; relative to 10^-6 M cyclopropyl penta-2,4-dienoic acid reference (RXRs), read-out: % efficacy (RXRβ transactivation))	Compound
> 30 µM	> 30 µM	6.7 µM	10 µM	> 100 µM	> 100 µM							Cc1cc(N(C)c2ccc(C(=O)O)cc2)cc2c1OCC2(C)C [Compound 26, 4-[Methyl-(3,3,7-trimethyl-2,3-dihydro-benzofuran-5-yl)-amino]-benzoic acid]
9.4 µM	> 10 µM	4.5 µM	> 10 µM	> 10 µM	> 10 µM	> 1 µM	25%	> 1 µM	15%			CCc1cc(N(C)c2ccc(C(=O)O)cc2)cc2c1OCC2(C)C [Compound 28, 4-[Methyl-(7-ethyl-3,3-dimethyl-2,3-dihydro-benzofuran-5-yl)-amino]-benzoicacid]
> 30 µM	> 30 µM	> 30 µM	9.2 µM	> 100 µM	> 100 µM	1 µM	75%					Cc1cc(N(c2ccc(C(=O)O)cc2)C(C)C)cc2c1OCC2(C)C [Compound 41, 4-[Isopropyl-(3,3,7-trimethyl-2,3-dihydro-benzofuran-5-yl)-amino]-benzoic acid]
						0.011 µM	119%	0.018 µM	120%	0.073 µM	113%	CCN(c1ccc(C(=O)O)cc1)c1cc2c(c(C(C)C)c1C)OCC2(C)C [Compound 70, 4-[Ethyl-(7-isopropyl-3,3,6-trimethyl-2,3-dihydro-benzofuran-5-yl)-amino]-benzoic acid]
